Laboratory results: ChEMBL document CHEMBL1201862, “PubChem BioAssay data set” (2004)
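Method: 48-hour compound exposure of cells in 96-well plates, five concentrations, linear interpolation of endpoints. GI50: concentration for 50% inhibition of growth.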 Activity calls are given as the source filed them. Rule as the data show it: active = GI50 up to about 1.1 µM and inactive = higher.

Legend:
Assay in all cases: NCI tumour cell line growth inhibition, 48 h
[1] = system: U-251
[2] = system: HOP-92
[3] = system: NCI-H23
[4] = system: HCT-116
[5] = system: PC-3
[6] = system: DU-145
[7] = system: IGROV-1
[8] = system: OVCAR-3
[9] = system: RPMI-8226
[10] = system: SK-MEL-5
[11] = system: Hs-578T
[12] = system: Malme-3M
[13] = system: NCI-H522
[14] = system: HOP-62
[15] = system: COLO 205
[16] = system: RXF 393
[17] = system: NCI-H226
[18] = system: NCI-H460
[19] = system: MDA-MB-435
[20] = system: SK-MEL-28

| Compound | GI50 [1] | GI50 [2] | GI50 [3] | GI50 [4] | GI50 [5] | GI50 [6] | GI50 [7] | GI50 [8] | GI50 [9] | GI50 [10] | GI50 [11] | GI50 [12] | GI50 [13] | GI50 [14] | GI50 [15] | GI50 [16] | GI50 [17] | GI50 [18] | GI50 [19] | GI50 [20] |
| --- | --- | --- | --- | --- | --- | --- | --- | --- | --- | --- | --- | --- | --- | --- | --- | --- | --- | --- | --- | --- |
| O=Nc1ccc(O)c2ncccc12 | 3.31 µM (inactive) | 3.09 µM (inactive) | 0.762 µM (active) | 0.822 µM (active) | 14.7 µM (inactive) | 5.7 µM (inactive) | 5.46 µM (inactive) | 3.33 µM (inactive) | 3.52 µM (inactive) | 7.21 µM (inactive) | 0.531 µM (active) | 11.8 µM (inactive) | 1.43 µM (inactive) | 2.8 µM (inactive) | 16.1 µM (inactive) | 1.67 µM (inactive) | 19.6 µM (inactive) | 1.25 µM (inactive) | 1.26 µM (inactive) | 4.34 µM (inactive) |
| CN(C)/N=C(/CC(O)(C(F)(F)F)C(F)(F)F)c1ccc([N+](=O)[O-])cc1 | > 100 µM (inactive) | > 100 µM (inactive) | > 100 µM (inactive) | > 100 µM (inactive) | > 100 µM (inactive) | > 100 µM (inactive) | 80.5 µM (inactive) | > 100 µM (inactive) | > 100 µM (inactive) | > 100 µM (inactive) | > 100 µM (inactive) | > 100 µM (inactive) | > 100 µM (inactive) | > 100 µM (inactive) | > 100 µM (inactive) | > 100 µM (inactive) | > 100 µM (inactive) | > 100 µM (inactive) | > 100 µM (inactive) | > 100 µM (inactive) |
| COC(=O)C1C(OS(=O)(=O)O)CCC2CN3CCc4c([nH]c5ccccc45)C3CC21 (stereo not given) | > 100 µM (inactive) | > 100 µM (inactive) | > 100 µM (inactive) | > 100 µM (inactive) | > 100 µM (inactive) | > 100 µM (inactive) | > 100 µM (inactive) | > 100 µM (inactive) | > 100 µM (inactive) | > 100 µM (inactive) | > 100 µM (inactive) | > 100 µM (inactive) | > 100 µM (inactive) | > 100 µM (inactive) | > 100 µM (inactive) | > 100 µM (inactive) | > 100 µM (inactive) | > 100 µM (inactive) | > 100 µM (inactive) | > 100 µM (inactive) |
| O=C(O)c1nn[nH]c1S | > 100 µM (inactive) | 4.59 µM (inactive) | > 100 µM (inactive) | > 100 µM (inactive) | > 100 µM (inactive) | > 100 µM (inactive) | > 100 µM (inactive) | > 100 µM (inactive) | > 100 µM (inactive) | > 100 µM (inactive) | > 100 µM (inactive) | > 100 µM (inactive) | > 100 µM (inactive) | > 100 µM (inactive) | > 100 µM (inactive) | > 100 µM (inactive) | > 100 µM (inactive) | > 100 µM (inactive) | > 100 µM (inactive) | > 100 µM (inactive) |
| COc1ccc(C2=NN(C(=O)c3ccc(Cl)cc3)C(O)(c3cc(F)c(Cl)cc3Cl)C2)cc1 (stereo not given) | > 100 µM (inactive) | > 100 µM (inactive) | 37.6 µM (inactive) | 23.4 µM (inactive) | 61.9 µM (inactive) | > 100 µM (inactive) | > 100 µM (inactive) | > 100 µM (inactive) | 22.9 µM (inactive) | > 100 µM (inactive) | > 100 µM (inactive) | > 100 µM (inactive) | > 100 µM (inactive) | > 100 µM (inactive) | 93.5 µM (inactive) | > 100 µM (inactive) | > 100 µM (inactive) | 56.8 µM (inactive) | 18.6 µM (inactive) | > 100 µM (inactive) |
| CC(=O)OCc1cccc(O)c1C(=O)CCC=C(C)C | > 100 µM (inactive) | > 100 µM (inactive) | > 100 µM (inactive) | > 100 µM (inactive) | > 100 µM (inactive) | > 100 µM (inactive) | > 100 µM (inactive) | > 100 µM (inactive) | > 100 µM (inactive) | > 100 µM (inactive) | > 100 µM (inactive) | > 100 µM (inactive) | 27.1 µM (inactive) | > 100 µM (inactive) | > 100 µM (inactive) | > 100 µM (inactive) | > 100 µM (inactive) | > 100 µM (inactive) | > 100 µM (inactive) | > 100 µM (inactive) |
| CC[N+]1(C)CCC(O)(c2ccccc2)C(C(=O)c2ccccc2)C1 (stereo not given) | 20.6 µM (inactive) | 8.3 µM (inactive) | 20.8 µM (inactive) | 13.6 µM (inactive) | 17.9 µM (inactive) | 22.1 µM (inactive) | 19.8 µM (inactive) | 19.3 µM (inactive) | 2 µM (inactive) | 18.6 µM (inactive) | 24 µM (inactive) | 16.7 µM (inactive) | 1.75 µM (inactive) | 22 µM (inactive) | 9.38 µM (inactive) | 12.4 µM (inactive) | 18.6 µM (inactive) | 21.7 µM (inactive) | 17.9 µM (inactive) | 15.2 µM (inactive) |
| CN(C)CCCC12CCCCC1=Nc1ccccc12 (stereo not given) | > 100 µM (inactive) | > 100 µM (inactive) | > 100 µM (inactive) | > 100 µM (inactive) | > 100 µM (inactive) | > 100 µM (inactive) | > 100 µM (inactive) | > 100 µM (inactive) | 65.5 µM (inactive) | > 100 µM (inactive) | > 100 µM (inactive) | > 100 µM (inactive) | 97.7 µM (inactive) | > 100 µM (inactive) | 48.2 µM (inactive) | > 100 µM (inactive) | > 100 µM (inactive) | > 100 µM (inactive) | 94.6 µM (inactive) | > 100 µM (inactive) |
| CC(=O)NC(CCC(=O)C=[N+]=[N-])C(=O)O (stereo not given) | > 100 µM (inactive) | > 100 µM (inactive) | > 100 µM (inactive) | > 100 µM (inactive) | > 100 µM (inactive) | > 100 µM (inactive) | > 100 µM (inactive) | > 100 µM (inactive) | > 100 µM (inactive) | > 100 µM (inactive) | > 100 µM (inactive) | > 100 µM (inactive) | > 100 µM (inactive) | > 100 µM (inactive) | > 100 µM (inactive) | > 100 µM (inactive) | > 100 µM (inactive) | > 100 µM (inactive) | > 100 µM (inactive) | > 100 µM (inactive) |
| SC1=Nc2ccccc2-c2nc(-c3cccc(Cl)c3)cc(-c3ccccc3)c2C1 | 1.19 µM (inactive) | 1.09 µM (active) | 5.07 µM (inactive) | 1.64 µM (inactive) | 7.57 µM (inactive) | 5.36 µM (inactive) | 0.678 µM (active) | 3.4 µM (inactive) | 3.2 µM (inactive) | 26.8 µM (inactive) | 2.05 µM (inactive) | 4.35 µM (inactive) | 2.06 µM (inactive) | 1.86 µM (inactive) | 7.82 µM (inactive) | 2.81 µM (inactive) | 3.68 µM (inactive) | 1.3 µM (inactive) | 9.02 µM (inactive) | 9.12 µM (inactive) |
| O=c1c(C(c2ccc3ccccc3c2)c2c(O)oc3ccccc3c2=O)c(O)oc2ccccc12 | 16.6 µM (inactive) | 29.2 µM (inactive) | 23.2 µM (inactive) | 35 µM (inactive) | 34.6 µM (inactive) | 40.7 µM (inactive) | 30.8 µM (inactive) | 32.5 µM (inactive) | 32.4 µM (inactive) | 22.6 µM (inactive) | 28.6 µM (inactive) | 17.7 µM (inactive) | 17.5 µM (inactive) | 39.3 µM (inactive) | 30.5 µM (inactive) | 46.7 µM (inactive) | 26.5 µM (inactive) | 27.7 µM (inactive) | 24.9 µM (inactive) | 28.6 µM (inactive) |
